From patent publication EP4786469A1, “TRIAZOLE-CONTAINING COMPOUND, AND PREPARATION METHOD AND USE THEREFOR” (Tuojie Biotech (Shanghai) Co., Ltd., priority 2023, dated 2025)

Target: human recombinant αvβ6 protein (Homo sapiens, UniProt P06756+P18564)
Assay: αvβ6 binding assay using fluorescence polarization (FP), competition with a fluorescently labeled RGD peptide
Details: 12 concentration points, highest 10 µM, read-out: αvβ6 IC50
Description: αvβ6 binding assay using fluorescence polarization (FP) method The analysis was based on competition with a fluorescently labeled RGD peptide for binding to αvβ6. The binding abilities of the test compounds were evaluated and screened according to FP value changes.
The test compounds (3.5 µL) were added to a 384-well black plate. For each test compound, 12 concentration points were set. The highest concentration was 10 µM, and was serially diluted 3-fold. DMSO control wells were used to determine the maximum signal, and 500 nM compound CWHM-12 [drawing 318]
HY-18644) control wells were used as the minimum signal.Then, 3.5 µL of a 4× human recombinant αvβ6 protein working solution (Acrobiosystem) was added. After 15 min of incubation at room temperature, 7 µL of a 2× fluorescent RGD peptide solution (Sangon Biotech) was added to each well. After 1 h of incubation at room temperature, FP signals were read using Envision. GraphPad Prism was used to fit inhibition curves and calculate IC50 values.
The IC50 values (Z factor > 0.5) were calculated using the following formula: Curve fitting formula: Y = Bottom + (Top - Bottom)/(1 + 10^((LogIC50 - X) × Hill Slope)) X: logarithmic value of inhibitor concentration; Y: inhibition percentage; Bottom: minimum response; Top: maximum response; Hill Slope: curve slope. Table 1. Data on the abilities of the compounds (III-h')-(III-m') of the present disclosure to bind to αvβ6

Sequence of human recombinant αvβ6 protein (P06756 31-992 limits assumed): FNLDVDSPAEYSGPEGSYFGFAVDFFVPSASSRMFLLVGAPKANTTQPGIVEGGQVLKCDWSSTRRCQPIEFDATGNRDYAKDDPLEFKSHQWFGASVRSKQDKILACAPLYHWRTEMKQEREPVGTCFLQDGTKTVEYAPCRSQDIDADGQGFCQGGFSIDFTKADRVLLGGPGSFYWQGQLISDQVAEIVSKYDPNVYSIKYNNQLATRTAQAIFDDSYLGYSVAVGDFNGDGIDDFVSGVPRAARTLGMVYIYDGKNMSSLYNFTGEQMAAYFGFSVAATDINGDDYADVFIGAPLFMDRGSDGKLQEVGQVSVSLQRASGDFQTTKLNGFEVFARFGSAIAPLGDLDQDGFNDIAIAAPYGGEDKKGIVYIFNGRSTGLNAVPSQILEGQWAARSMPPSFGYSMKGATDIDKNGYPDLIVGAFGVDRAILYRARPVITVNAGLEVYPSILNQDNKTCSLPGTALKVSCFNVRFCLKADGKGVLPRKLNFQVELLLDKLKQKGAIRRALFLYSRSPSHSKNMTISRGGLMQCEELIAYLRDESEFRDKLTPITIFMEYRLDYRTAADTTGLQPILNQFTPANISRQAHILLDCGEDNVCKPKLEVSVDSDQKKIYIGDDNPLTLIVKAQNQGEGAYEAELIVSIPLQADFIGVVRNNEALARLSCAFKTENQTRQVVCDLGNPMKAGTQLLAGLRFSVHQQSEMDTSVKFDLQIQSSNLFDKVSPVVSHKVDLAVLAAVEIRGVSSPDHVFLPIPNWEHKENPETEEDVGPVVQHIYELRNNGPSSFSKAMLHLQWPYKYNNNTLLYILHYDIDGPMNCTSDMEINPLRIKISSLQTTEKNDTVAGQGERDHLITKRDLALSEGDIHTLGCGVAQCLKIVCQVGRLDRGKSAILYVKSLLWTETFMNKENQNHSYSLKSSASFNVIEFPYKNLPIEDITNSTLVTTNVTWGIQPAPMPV
Sequence of human recombinant αvβ6 protein (P18564 22-707 limits assumed): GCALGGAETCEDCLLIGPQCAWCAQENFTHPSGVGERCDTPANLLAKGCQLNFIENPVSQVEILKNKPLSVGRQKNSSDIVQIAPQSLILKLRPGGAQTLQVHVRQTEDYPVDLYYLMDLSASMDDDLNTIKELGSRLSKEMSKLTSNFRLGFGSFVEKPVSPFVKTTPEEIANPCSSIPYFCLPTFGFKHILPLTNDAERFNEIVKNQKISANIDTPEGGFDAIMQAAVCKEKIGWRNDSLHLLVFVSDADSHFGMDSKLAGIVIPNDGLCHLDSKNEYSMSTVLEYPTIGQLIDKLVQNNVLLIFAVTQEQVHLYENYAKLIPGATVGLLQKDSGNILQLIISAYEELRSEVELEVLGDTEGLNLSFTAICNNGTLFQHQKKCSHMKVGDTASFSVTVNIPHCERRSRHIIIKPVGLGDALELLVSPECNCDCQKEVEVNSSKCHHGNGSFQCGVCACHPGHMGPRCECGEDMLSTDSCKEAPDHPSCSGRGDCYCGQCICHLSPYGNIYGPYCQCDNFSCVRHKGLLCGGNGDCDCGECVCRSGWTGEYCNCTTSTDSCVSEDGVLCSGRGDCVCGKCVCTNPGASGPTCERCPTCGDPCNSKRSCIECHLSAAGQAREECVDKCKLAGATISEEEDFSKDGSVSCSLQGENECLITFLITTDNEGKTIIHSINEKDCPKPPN

SMILES | IC50
Cc1ccnc(NCCCC(=O)NCC(=O)N[C@@H](CC(=O)O)c2ccc(-c3ccc(OCCOCCOCCOCCOCCN=[N+]=[N-])c4ccccc34)cc2)c1 [SM6.1-αvβ6, reference compound] | 1.6 nM
[N-]=[N+]=NCCOCCOCCOCCOCCOc1ccc(-c2ccc([C@H](CC(=O)O)NC(=O)CNC(=O)CCc3ccc4c(n3)NCCC4)cc2)c2ccccc12 [III-l'] | 1.67 nM

Next, values leading:

IC50 | SMILES
1.47 nM | [N-]=[N+]=NCCOCCOCCOCCOCCOc1ccc(-c2ccc([C@H](CC(=O)O)NC(=O)CNC(=O)CCCNc3cc4c(cn3)CCCC4)cc2)c2ccccc12 [III-m']
2.29 nM | [N-]=[N+]=NCCOCCOCCOCCOCCOc1ccc(-c2ccc([C@H](CC(=O)O)NC(=O)CNC(=O)CCCc3ccc4c(n3)NCCC4)cc2)c2ccccc12 [III-k']

Same assay, conditions: read-out: αvβ6 IC50, 12 concentration points, highest 10 µM

SMILES | IC50
Cc1ccnc(NCCNC(=O)NCC(=O)N[C@@H](CC(=O)O)c2ccc(-c3ccc(OCCOCCOCCOCCOCCN=[N+]=[N-])c4ccccc34)cc2)c1 [III-i'] | 2.47 nM
[N-]=[N+]=NCCOCCOCCOCCOCCOc1ccc(-c2ccc([C@H](CC(=O)O)NC(=O)CNC(=O)CCCNc3nccs3)cc2)c2ccccc12 [III-j'] | 1.98 nM
Cc1ccnc(NCCOC(=O)NCC(=O)N[C@@H](CC(=O)O)c2ccc(-c3ccc(OCCOCCOCCOCCOCCN=[N+]=[N-])c4ccccc34)cc2)c1 [III-h'] | 0.856 nM
